pIC50: −log10 of the molar value. Entries after “also recorded” stand apart in the source; their conditions may differ.
Legend:
[1] = target: M. pneumoniae binding to sulfatide; experiment: Inhibition of M. pneumoniae binding to sulfatide adsorbed on plastic; set-up: species or system Mycoplasma pneumoniae strain M129
Description: (§1) Virulent M. pneumoniae strain M129, passage 5-15, were grown and metabolically labelled with [^3 H]palmitic acid, 12-17 Ci/mole, as described by Chandler et al. in Infect. Immun. 37: 942, 1982. The organisms were passed four times through a 26 gauge needle and suspended to approximately 10^7 cpm/ml of degassed RPMI 1640 medium containing 1% bovine serum albumin and 25 mM HEPES, pH 7.3.
(§2) The binding of M. pneumoniae to purified glycolipids immobilized in microtiter plates was measured as described by Krivan et al. in Proc. Natl. Acad. Sci., op. cit. Purified glycolipids were serially diluted in 25 μl of methanol containing 0.1 μg each of the auxiliary lipids cholesterol and phosphatidylcholine. After the solutions were dried by evaporation, the wells were filled with TBS-BSA, emptied after one hour, rinsed with RPMI-BSA, and incubated with 25 μl of [^3 H]-M. pneumoniae, approximately 10^7 cpm/ml RPMI-BSA. After incubation for two hours at 37° C., unless otherwise stated, the wells were washed five times with saline and bound M. pneumoniae was quantified by scintillation counting in Aquasol. For inhibition studies, various polysaccharides were serially diluted in […] of [^3 H]-M. pneumoniae.
To obtain the results shown in FIG. 4, polysaccharides were serially diluted in 25 μl of RPMI-BSA in microtiter wells previously coated with 1 μg of purified sulfatide. Binding was determined after incubation of two hours at 37° C. with 25 μl of [^3 H]-M. pneumoniae with the indicated concentration of dextran ( .circle. ) or dextran sulfate.

[2] = tested on: M. pneumoniae adhesion to coverslips; experiment: Inhibition of nonspecific adhesion of M. pneumoniae to coverslips without cells; assay type: binding, Mycoplasma pneumoniae strain M129
Description: (§3) Adhesion of [^3 H]-M. pneumoniae to cells on glass covered slips was measured by a modification of a method previously described by Chandler et al., Infect. Immun., op. cit. WiDr human colon adenocarcinoma, ATCC CCL 218 was grown in Eagle's minimal essential medium with 10% fetal calf serum in a 5% CO2 atmosphere at 37° C. The cells were removed with trypsin and plated on 12 mm round glass coverslips in 24-well tissue culture plates and grown for three days. Control coverslips were preincubated in medium without cells. The coverslips were washed in serum-free medium, then incubated in RPMI-BSA for fifteen minutes. The medium was removed and labelled M. pneumoniae suspended in 0.5 ml of RPMI-BSA were added to each well. The plates were incubated on a rocking table for 60 minutes at 37° C. The coverslips were washed by dipping in saline six times, and the bound radioactive bacteria were determined by scintillation counting. For inhibition studies, the inhibitors were added to M. pneumoniae prior to adding the bacteria to the coverslips.
(§4) Adhesion of labelled M. pneumoniae to WiDr cells on glass cover slips was determined as described previously. For inhibition studies, dextran sulfate and 3'-sialyllactose were dissolved in RPMI-BSA and the pH was adjusted to 7.4 with NaOH. The inhibitors were added to wells containing washed cover slips with attached WiDr cells or blank cover slips preincubated in medium or tris-BSA. Labelled M. pneumoniae were added immediately and incubated with slow rocking for sixty minutes at 37° C. After the coverslips were washed by dipping six times in saline, bound M. pneumoniae were determined by scintillation counting in Aquasol. […] After washing to remove the unbound organisms, the bound mycoplasma were determined by scintillation counting. Binding to uncoated wells was 3% of the applied radioactivity.

[3] = tested on: M. pneumoniae adhesion to WiDr cells; experiment: Inhibition of M. pneumoniae adhesion to WiDr human colon adenocarcinoma cell monolayers; assay type: cell-based
Description: as §3
Because virulent strains of M. pneumoniae adhere to mammalian cells, monolayers of WiDr cells were used to determine if dextran sulfate inhibits adhesion of the organism. [^3 H] -labelled M. pneumoniae was incubated with WiDr cell monolayers attached to coverslips in triplicate with an without dextran sulfate, as shown in Table II. […] In each experiment, 10 μg/ml dextran sulfate inhibited more than 1 μg/ml, but 100 μg/ml dextran sulfate caused no further inhibition. Thus, maximal inhibition was obtained with approximately 10 μg/ml of dextran sulfate. Similar results were obtained with MRC5 lung fibroblasts where in three experiments a mean of 47% of M. pneumoniae adhesion was inhibited by dextran sulfate.
as §4
Adhesion of [^3 H]-M. pneumoniae to WiDr cells growing on 13 mm glass cover slips was determined as described above. Inhibition by dextran sulfate or 3'-sialyllactose at the indicated concentrations was calculated relative to control binding determined in RPMI/BSA without inhibitors. The results are presented as percent inhibition (mean±S.D. n=4 with n=8 for determination of control binding without inhibitor).

[4] = tested on: M. pneumoniae binding to laminin; experiment: Inhibition of M. pneumoniae binding to laminin adsorbed on plastic; set-up: species or system Mycoplasma pneumoniae strain M129; settings: for pIC50: oligosaccharide concentrations as sialic acid, read-out: I.D.50, substrate laminin
Description: (§5) Glycoproteins dissolved in 0.01 M sodium phosphate buffer, pH 7.4, containing 150 mM NaCl, 1 mM CaCl2, and 0.01% NaN3 were adsorbed onto plastic polyvinylchloride […] microtiter plates by incubation for 16 hours at 4° C. The unbound proteins were removed, and the wells were filled with tris-BSA and incubated for 30 minutes at room temperature. The wells were rinsed with RPMI1640 containing 25 mM HEPES, pH 7.3, and 1% bovine serum albumin. M. pneumoniae strain M129 labelled with [^3 H]-palmitate were dispersed in RPMI-BSA by passing four times through a 26 gauge needle, and 50 μl of the suspension was applied to the wells. After incubation for 60 minutes at 37° C., the wells were washed five times with saline and the labelled M. pneumoniae bound to the proteins were quantified by scintillation counting in Aquasol.
For inhibition studies, sugars in 25 μl of RPMI-BSA were added to wells coated with 10 μg/ml laminin followed by 25 μl of [^3 H]-M. pneumoniae. Binding was determined to both laminin-coated and uncoated wells in triplicate at each inhibitor concentration and in the absence of inhibitor. In some experiments, the adsorbed proteins were pretreated with neuraminidase. After adsorption of the proteins and incubation in tris-BSA, the wells were rinsed three times with 50 mM sodium acetate, pH 5.5, containing 150 mM NaCl, 5 mM CaCl2, 1 mg/ml bovine serum albumin, and 1 mM phenylmethanesulfonyl fluoride. The wells were incubated with 0.05 units/ml neuraminidase in the same buffer or with buffer without enzyme overnight at 20° C. The wells were rinsed three times with tris-BSA, and M. pneumoniae binding was determined as described above.

[5] = tested on: erythrocyte adhesion to M. pneumoniae; settings: relative to fetuin; Loomes et al.; cited from earlier work
M. pneumoniae [6] = experiment: M. pneumoniae adhesion to immobilized glycoproteins adsorbed on plastic; assay type: binding, Mycoplasma pneumoniae strain M129; settings: for M. pneumoniae adhesion to immobilized glycoprotein (in words): adsorbed on plastic
Description: as §5, with “Aquasol. […]” for “Aquasol.”

M. pneumoniae [7] = experiment: Solid-phase binding of [3H]-M. pneumoniae to purified glycolipids immobilized in microtiter plates; set-up: species or system Mycoplasma pneumoniae strain M129
Description: as §1, §2
To obtain the results shown in FIG. 2, lipids in […] each of the auxiliary lipids cholesterol and phosphatidylcholine were evaporated in flat bottom wells of polyvinylchloride microtiter plates. The wells were blocked with 1% albumin for one hour, washed twice with RPMI-BSA, and incubated at 25° C. with 25 μl of [^3 H]-M. pneumoniae, approximately […]. After two hours, the wells were washed five times with saline, cut from the plate, and bound radioactivity was quantified in a scintillation counter. In control experiments, organisms were incubated with auxiliary lipids only to correct for nonspecific binding, typically <1% of the total radioactivity added. M. pneumoniae binding was determined in RPMI-BSA for sulfatide ( .circle. ), lactosylceramide, paragloboside, and cholesterol sulfate, ceramide trihexoside, globoside, GM1, GM2, or GM3 ( .largecircle.).
Binding of [^3 H]-M. pneumoniae was determined in RPMI-BSA for two hours at 4° C., 25° C. ( .circle. ), 37° C., and at 37° C. in BSA without RPMI (Δ).

M. pneumoniae [8] = experiment: Mycoplasma overlay assay: binding of [3H]-M. pneumoniae to glycolipids on thin layer chromatograms; set-up: species or system Mycoplasma pneumoniae strain M129; settings: for binding of M. pneumoniae to glycolipid (in words): thin layer chromatogram overlay
Description: as §1
M. pneumoniae were bound to glycolipids separated on thin-layer chromatograms as described in detail for other bacteria by Krivan et al., Proc. Natl. Acad. Sci. 85: 6157-6161, 1988, and Krivan et al., Arch. Biochem. Biophys. 260:493-496, 1988. Briefly, glycolipids were separated by thin-layer chromatography on aluminum-backed silica gel high-performance plates developed with chlooform:methanol:0.25% CaCl2 in water (60:35:8). After chromatography, the plates were coated with 0.1% polyisobutylmethacrylate, soaked in 0.05 M Tris-HCl, pH 7.6, containing […] sodium chloride, 5 mM CaCl2, 0.2 mM phenylmethane-sulfonyl fluoride, and 1% bovine serum albumin (TBS-BSA) and incubated for three hours at 25° C. with 60 μl/cm^2 of [^3 H]-labelled M. pneumoniae, approximately 10^7 cpm/ml of RPMI-BSA. The plates were gently washed five times in 0.01 M sodium phosphate, pH 7.2, containing 0.15 M sodium chloride (PBS) to remove unbound organisms, dried, and exposed for 24 hours to Ultrofilm ^3 H (2208-190) high speed film.
To obtain the results shown in FIG. 1, glycolipids were chromatographed on aluminum-backed silica gel HPTLC plates developed in chloroform/methanol/0.25% CaCl2 in water, 60:35:8. The plates were coated with plastic, soaked in Tris-BSA, and incubated for three hours at 25° C. with [^3 H]-palmitate-labelled M. pneumoniae suspended in RPMI 1640 containing 1% BSA and 25 mM HEPES, pH 7.3, as described above (Panel A), or sprayed with orcinol reagent to identify glycolipids (Panel B). Lane a, acidic glycolipid standards sulfatide (0.5 μg), GM3 (2 μg), GM2 (2 μg), GD1a (2 μg), GD1b (2 μg), GT1b (2 μg); lane b, neutral standards galactosyl ceramide (4 μg), lactosylceramide (4 μg), globotriaosylceramide (2 μg), c2(0.5 μg). and c3 (o.1 μg); lane d, seminolipid (2 μg); lane e, cholesterol 3 -sulfate (2 μg); lane f, human trachea acidic glycolipids from 100 mg wet weight […]; lane h, α2-3sialylparagloboside (2 μg); lane 1, I-active monosialylganglioside from bovine erythrocytes (2 μg).

## CC(=O)NC1C(O)CC(OC2C(O)C(CO)OC(OC3C(CO)OC(O)C(O)C3O)C2O)(C(=O)O)OC1C(O)C(O)CO (centres unmarked) [3'-sialyllactose]
[1]; oligosaccharide concentrations as sialic acid, read-out: I.D.50, substrate sulfatide
  pIC50: < 2.30
[1]; sulfatide adsorbed on plastic
  inhibition of binding to sulfatide (in words): Neither laminin nor 3'-sialyllactose inhibits M. pneumoniae attachment to sulfatide; also recorded: does not inhibit binding to sulfatide
[2]; coverslips preincubated in medium containing fetal calf serum
  inhibition of non-specific adhesion to coverslips (in words): specifically inhibited
[2]; coverslips preincubated in tris-BSA
  inhibition of nonspecific binding to coverslips (in words): does not inhibit nonspecific binding
[3]
  inhibition of adhesion to WiDr cells (in words): partially inhibit
[3]; listed as 3'-Sialyllactose
  inhibition of adhesion to WiDr cells (in words): The inhibition is dose dependent
[3]; WiDr, more than ten-fold higher than ID50 for binding to laminin, 60 min
  control adhesion remaining: 40%
[4]; laminin adsorbed on plastic
  inhibition of binding to laminin (in words): inhibited by 3'-sialyllactose at comparable concentrations; also recorded: inhibit attachment of M. pneumoniae to laminin
[4]
  pIC50: 3.52

## CC(=O)NC1C(O)CC(OCC2OC(OC3C(CO)OC(O)C(O)C3O)C(O)C(O)C2O)(C(=O)O)OC1C(O)C(O)CO (centres unmarked) [6'-sialyllactose]
[4]; 5 mM inhibitor, laminin substrate, 60 min
  Binding % of control: 54 % of control
[4]; compared with 3'-sialyllactose or other fetuin oligosaccharide fractions
  relative inhibitory activity, binding to laminin (in words): at least ten-fold less active
[4]
  pIC50: < 2.30

## Human α1 -acid glycoprotein: glycoprotein
[5]
  inhibition of erythrocyte adhesion to M. pneumoniae (in words): inhibit erythrocyte adhesion to M. pneumoniae better than fetuin
M. pneumoniae [6]
  M. pneumoniae adhesion to immobilized glycoprotein (in words): neither protein binds M. pneumoniae well
M. pneumoniae [6]; listed as alpha-1-acid glycoprotein
  M. pneumoniae adhesion to immobilized glycoprotein (in words): weakly active
M. pneumoniae [6]; relative to fetuin = 1.0, from amount for half maximal binding, mean of 2 or 3 experiments
  Relative binding activity: 0.03

## galactosyl ceramide-I^3 -sulfate [Sulfatide]
M. pneumoniae [7]; 4° C., RPMI-BSA
  binding activity at 4° C.: almost completely abolished; also recorded: minimal
M. pneumoniae [7]; 25° C., RPMI-BSA
  binding activity at 25° C. (relative to 37° C.): about five times lower
M. pneumoniae [7]; 37° C., RPMI-BSA
  amount of sulfatide required for half-maximum binding: about 0.25 μg
M. pneumoniae [7]; 37° C., Tris-BSA without RPMI
  binding in nutrient-deficient medium: almost completely abolished; also recorded: bound poorly
M. pneumoniae [7]; RPMI medium, 37° C. / physiological temperatures
  binding in RPMI medium at 37° C.: maximal
M. pneumoniae [7]; microtiter plate, up to 10 μg per well
  binding of M. pneumoniae to immobilized lipid (in words): good dose response; also recorded: bind to sulfatide adsorbed on plastic; also recorded: sensitive and dose-dependent
M. pneumoniae [8]; Table I, class by amount of lipid bound
  Binding (ability to bind M. pneumoniae): +++ (positive binding to less than 0.5 μg)
M. pneumoniae [8]; listed as galactosyl ceramide I^3 -sulfate
  binding of M. pneumoniae to glycolipid (in words): does not discriminate between galactosyl ceramide I^3 -sulfate and its unnatural 6-sulfate isomer
M. pneumoniae [8]; listed as sulfatide
  binding of M. pneumoniae to glycolipid (in words): bound strongly; also recorded: bound avidly
M. pneumoniae [8]; thin layer chromatogram, lane C3
  amount of glycolipid detected by M. pneumoniae overlay: 100 ng

From patent US5089479A, “Adhesion of Mycoplasma pneumoniae and Mycoplasma hominus to sulfatide” (priority 1988, dated 1992)
